Measurements: patent US20110105554A1, “MEANS FOR TREATING MYOSIN-RELATED DISEASES” (KINARIS BIOMEDICALS GMBH, priority 2007, published 2011)

Assays:
[1] = biological target: T1, Dictyostelium myosin-2 (Dictyostelium discoideum, UniProt P08799, C312Y/S249N); test: Actin-activated ATPase activity (NADH-coupled assay), Dictyostelium myosin-2; format: biochemical
T1 construct: comprising amino acids 1-698, 1-765, and 1-839 respectively; made in house
Procedure: Based on the structure of the myosin-2 motor domain with bound PBP, we performed molecular modeling studies to elucidate the specificity of PBP-binding to myosins from different classes. […] To test the predictions from the modeling studies, we determined actin-activated ATPase activities in the presence of 0 to 150 μM PBP with rabbit skeletal myosin-2 heavy meromyosin (HMM), myosin-5a isolated from chicken brain, and recombinant Dictyostelium myosin class-1, 2 and 5 motor-domain constructs (FIG. 9a). […] The concentrations of PBP required for half-maximal inhibition of the different myosin motors was calculated from fitting the data to hyperbolae. […] To determine the extend to which PBP impairs the coupling between the actin- and nucleotide-binding sites of myosin, we measured the ATP turn-over rates of Dictyostelium myosin-2 and myosin-5b motor domain constructs over the range from 0 to 50 μM F-actin in the absence and presence of 25 μM PBP.
Values for the rate of maximum ATP turnover (kcat), the concentration of F-actin at which half-maximal activation is achieved (Kapp), and the apparent second order rate constant for actin binding (kcat/Kapp) were estimated from a fit of the data to a hyperbolic function. kcat/Kapp is a direct measure of the coupling efficiency between actin and nucleotide binding and can be determined from the initial slope at F-actin concentrations much smaller than Kapp. […] ATP turn-over rates of Dictyostelium myosin-2 (◯) and Dictyostelium myosin-5b (▪) at increasing F-actin concentrations in the absence (filled symbols) and presence (open symbols) of 25 μM pentabromopseudilin (FIG. 9b):
Protein preparation. Rabbit fast skeletal muscle heavy meromyosin (HMM) was prepared as described by Kron and Spudich^9. Motor domain constructs of myosin-1E, myosin-2, and myosin-5b from Dictyostelium discoideum comprising amino acids 1-698, 1-765, and 1-839 respectively, were prepared as described previouslyl^10-12. Myosin-5a heavy meromyosin from chicken brain was provided by Dr. T. Scholz (Hannover Medical School, Germany) and F-actin was prepared as described by Lehrer and Kerwar^13.
Steady-state kinetics. Basal and actin-activated Mg^2+-ATPase activities were measured with the NADH-coupled assay^19 in a buffer containing 25 mM HEPES, 25 mM KCl, and 4 mM MgCl2, 0.5 mM DTT at pH 7.0 in the presence of 1 mM ATP at 25° C. PBP was added to the reaction mixture in the absence of nucleotide and incubated for 20 minutes before the reaction was started by the addition of ATP. NADH oxidation was followed using the change in absorption at 340 nm in a Beckman DU-800 spectrophotometer.

[2] = biological target: myosin-1E (Dictyostelium discoideum, UniProt Q03479); test: In vitro motility assay (actin filament sliding), myosin-1E; format: biochemical; conditions: data not shown
Procedure: The extent and order of isoform-specific differences in the potency of the inhibitor were additionally confirmed by the results of in vitro motility assays). […] (FIG. 11a) Myosin-5a moves actin filaments with an average velocity of 0.6 μm/s±0.05 (dark bars); addition of 10 μM PBP into the same flow cell lead to a 46-fold reduction of the average sliding velocity to 0.013 μm/s±0.002 (light grey bars).
Direct functional Assays. Actin-sliding motility was performed at 25° C. using an Olympus IX81 inverted fluorescence microscope. Experimental flow cells were constructed using bovine serum albumin (0.5 mg/ml in assay buffer)-coated glass slides and nitrocellulose-coated coverslips. Myosins were actin affinity-purified immediately before use, to remove rigor heads^20. Sliding movement was started by adding assay buffer containing 4 mM ATP, 10 mM DTT, 0.5 mg/ml bovine serum albumin, anti-fade solution, and 0.5% methylcellulose to the flow cell. Average sliding velocity was determined from the Gaussian distribution of automatically tracked actin filaments using DiaTrack 3.0 and Origin 7.0.

[3] = tested on: Saccharomyces cerevisiae cells; test: Myo2p-dependent changes in mitochondrial morphology in yeast; format: cell-based
Procedure: FIG. 13: Myo2p-dependent changes in mitochondrial morphology. In yeast cells, the class-5 myosins Myo2p is responsible for the distribution of mitochondria between mother and daughter cells during cytokinesis and has be shown to affect mitochondrial morphology during […]. […] Insets show the same cells viewed under transmitted light. Bar: 5 μm
To test the specific inhibition of myosin-5 function in a cellular context, we exposed Saccharomyces cerevisiae cells to 100 to 500 nM PBP. S. cerevisiae has five myosin heavy chain genes: a myosin-2, two class-1 myosins, and the class-5 myosins Myo2p and Myo4p. Myo2p plays a crucial role in polarized distribution of mitochondria and is required for retention of newly inherited mitochondria in yeast cells during cell division^4-6. Myo4p is required for mRNA transport and facilitates movement of ER tubules into the growing bud. Myo4p null mutants are viable and display no detectable phenotype. Deletion of the myo3 and myo5 genes, encoding class-1 myosins, leads to severe defects in growth and actin cytoskeletal organization. Severe growth defects are also observed upon depletion of the class-2 myosin Myo1p. Therefore, we expected that selective inhibition of class-5 myosins will produce readily detectable changes in the morphology of mitochondria without affecting cell growth and cytokinesis. To facilitate the visual inspection of mitochondrial morphology, we transfected the cells used for these experiments with an expression vector for the production of mitochondria-targeted GFP^7. A yeast mutant strain with myo2 expression under the control of the TetO7 promoter was used as control^8. Repression of the TetO7 promoter by the addition of 10 μg/ml deoxycycline to the culture medium of this strain led to an apparent fragmentation of mitochondria.
Myo2p-dependent changes in mitochondrial morphology. […] Yeast strains producing mitochondria-targeted GFP were supplied by Dr. B. Westermann^7, allowing us to study the morphology of yeast mitochondria in a fluorescence microscope. […] Cells were analyzed at the end of the logarithmic growth phase. […]

T1 sequence (P08799 1-765 S249N/C312Y): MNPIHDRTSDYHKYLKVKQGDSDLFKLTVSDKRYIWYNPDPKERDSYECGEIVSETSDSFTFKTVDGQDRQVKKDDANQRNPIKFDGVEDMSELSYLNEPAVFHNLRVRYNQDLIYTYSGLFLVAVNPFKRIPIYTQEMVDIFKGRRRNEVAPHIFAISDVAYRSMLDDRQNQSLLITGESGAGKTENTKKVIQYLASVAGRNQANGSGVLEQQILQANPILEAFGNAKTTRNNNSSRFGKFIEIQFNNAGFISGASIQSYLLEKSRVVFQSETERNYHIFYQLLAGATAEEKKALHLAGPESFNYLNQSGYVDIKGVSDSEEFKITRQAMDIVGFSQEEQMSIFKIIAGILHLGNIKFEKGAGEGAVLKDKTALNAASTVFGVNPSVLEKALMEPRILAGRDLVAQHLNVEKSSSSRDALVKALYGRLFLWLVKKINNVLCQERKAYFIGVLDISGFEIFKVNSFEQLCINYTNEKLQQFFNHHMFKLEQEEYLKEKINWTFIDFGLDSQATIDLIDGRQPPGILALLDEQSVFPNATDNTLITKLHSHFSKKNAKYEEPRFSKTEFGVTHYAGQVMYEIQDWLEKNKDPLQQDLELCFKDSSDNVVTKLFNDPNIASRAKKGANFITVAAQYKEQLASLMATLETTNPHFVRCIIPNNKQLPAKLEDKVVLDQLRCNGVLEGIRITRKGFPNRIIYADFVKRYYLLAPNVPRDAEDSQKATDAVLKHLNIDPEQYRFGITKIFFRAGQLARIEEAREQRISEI
Chain of myosin-1E (Q03479 whole entry, canonical isoform): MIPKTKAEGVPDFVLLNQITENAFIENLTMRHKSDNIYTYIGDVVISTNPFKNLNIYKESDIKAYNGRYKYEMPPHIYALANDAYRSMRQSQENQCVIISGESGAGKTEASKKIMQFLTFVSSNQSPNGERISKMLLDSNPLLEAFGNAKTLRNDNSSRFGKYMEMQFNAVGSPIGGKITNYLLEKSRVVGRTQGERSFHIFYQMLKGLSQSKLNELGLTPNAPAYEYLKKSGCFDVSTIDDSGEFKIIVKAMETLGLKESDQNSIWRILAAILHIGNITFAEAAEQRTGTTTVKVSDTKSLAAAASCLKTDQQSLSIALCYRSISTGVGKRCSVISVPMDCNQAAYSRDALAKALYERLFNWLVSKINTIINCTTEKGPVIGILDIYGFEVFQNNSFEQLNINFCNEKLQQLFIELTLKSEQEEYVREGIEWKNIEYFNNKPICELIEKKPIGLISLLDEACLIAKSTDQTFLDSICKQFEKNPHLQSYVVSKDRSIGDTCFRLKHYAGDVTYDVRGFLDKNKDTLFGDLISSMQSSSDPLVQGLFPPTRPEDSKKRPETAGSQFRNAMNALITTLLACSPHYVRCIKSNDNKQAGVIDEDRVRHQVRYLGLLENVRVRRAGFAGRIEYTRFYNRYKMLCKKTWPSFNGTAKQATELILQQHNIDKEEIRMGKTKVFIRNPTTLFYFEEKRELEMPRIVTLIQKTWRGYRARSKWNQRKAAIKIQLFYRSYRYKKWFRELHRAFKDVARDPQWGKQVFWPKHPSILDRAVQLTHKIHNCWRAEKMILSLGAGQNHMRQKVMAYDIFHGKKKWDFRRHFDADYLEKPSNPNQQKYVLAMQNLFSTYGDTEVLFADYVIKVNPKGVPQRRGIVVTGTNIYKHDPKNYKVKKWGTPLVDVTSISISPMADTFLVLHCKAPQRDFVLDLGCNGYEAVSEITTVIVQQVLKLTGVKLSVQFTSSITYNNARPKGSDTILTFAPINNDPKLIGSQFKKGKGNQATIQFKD

## Oc1c(Br)cc(Br)cc1-c1[nH]c(Br)c(Br)c1Br [KIN-43]
[1]
  Ki: 24 µM
[1]; 25 μM PBP
  fold reduction in coupling (kcat/Kapp): 3.7 fold
[1]; 25 μM PBP, 0 to 50 μM F-actin, 0.037 without
  kcat/Kapp (apparent second order rate constant for actin binding): 0.010 µM⁻¹ s⁻¹
[1]; >100 μM PBP, 0.7 s^−1 without
  ATPase activity at 30 μM F-actin in the presence of inhibitor: 0.02 s⁻¹
[2]
  inhibition of actin filament sliding: No significant inhibition
[3]; 100 nM PBP
  mitochondrial morphology: closely resembled that of untreated wild-type cells
[3]; 500 nM PBP, 12 hours, wild-type cells, listed as PBP
  mitochondrial morphology: phenotype of Myo2p-depleted cells can be phenocopied
[3]; 500 nM, listed as PDP
  growth kinetics of yeast cells: almost the same growth kinetics as wild type control cultures
